Measured values: patent publication US20230060425A1, “FUSED BICYCLIC HETEROCYCLE DERIVATIVES AS PESTICIDES” (Bayer Aktiengesellschaft, priority 2019, published 2023)
Where two headings read alike, the source gives them in different places.

How the values were obtained:
Type in all cases: in vivo
[1] = system: Spodoptera frugiperda; test: Spodoptera frugiperda spray test; settings: foliar, 168 h, application rate 100 g/ha, maize leaf discs, after 7 days, read-out: efficacy
Procedure: Spodoptera frugiperda—Spray Test
(§1) Solvent: • 78.0 parts by weight of acetone • 1.5 parts by weight of dimethylformamide
(§2) Emulsifier: alkylaryl polyglycol ether
To produce further test concentrations, the formulation is diluted with emulsifier-containing water.
After 7 days, the efficacy in % is determined. 100% means that all the caterpillars have been killed; 0% means that no caterpillar has been killed.

[2] = system: Myzus persicae; test: Myzus persicae oral test; settings: 120 h, application rate 4 ppm, after 5 days, read-out: efficacy
Procedure: Solvent: 100 parts by weight of acetone
To produce a suitable preparation of active compound, 1 part by weight of active compound is dissolved using the specified parts by weight of solvent and made up with water until the desired concentration is attained.
50 μl of the active compound preparation are transferred into microtitre plates and made up to a final volume of 200 μl with 150 μl of IPL41 insect medium (33%+15% sugar). Subsequently, the plates are sealed with parafilm, which a mixed population of green peach aphids (Myzus persicae) within a second microtitre plate is able to puncture and imbibe the solution through it.
(§3) After 5 days, the efficacy in % is determined. 100% means that all the aphids have been killed; 0% means that no aphids have been killed.

[3] = system: Ctenocephalides felis; test: Ctenocephalides felis in vitro contact test with adult cat fleas; settings: application rate 5 μg/cm^2 (=500 g/ha); after 48 h; fleas dead or moribund
Procedure: Ctenocephalides felis—In Vitro Contact Tests with Adult Cat Fleas
(§4) For the coating of the test tubes, 9 mg of active compound are first dissolved in 1 ml of acetone p.a. and then diluted to the desired concentration with acetone p.a. 250 μl of the solution are distributed homogeneously on the inner walls and the base of a 25 ml glass tube by turning and rocking on an orbital shaker (rocking rotation at 30 rpm for 2 h). With 900 ppm of active compound solution and internal surface area 44.7 cm^2, given homogeneous distribution, an area-based dose of 5 μg/cm^2 is achieved.
After the solvent has evaporated off, the tubes are populated with 5-10 adult cat fleas (Ctenocephalides felis), sealed with a perforated plastic lid and incubated in a horizontal position at room temperature and ambient humidity. After 48 h, efficacy is determined. To this end, the tubes are stood upright and the fleas are knocked to the base of the tube. Fleas which remain motionless at the base or move in an uncoordinated manner are considered to be dead or moribund.
100% efficacy means that all the fleas were dead or moribund. 0% efficacy means that no fleas were harmed.

[4] = system: Myzus persicae; test: Myzus persicae spray test; settings: foliar, 120 h, application rate 100 g/ha, Chinese cabbage leaf discs, after 5 days, read-out: efficacy
Procedure: Myzus persicae—Spray Test
Solvent: • 78 parts by weight of acetone • 1.5 parts by weight of dimethylformamide
as §2
(§5) To produce a suitable active compound preparation, 1 part by weight of active compound is dissolved using the stated parts by weight of solvent and made up with water containing an emulsifier concentration of 1000 ppm until the desired concentration is attained. To produce further test concentrations, the formulation is diluted with emulsifier-containing water.
Discs of Chinese cabbage leaves (Brassica pekinensis) infested by all stages of the green peach aphid (Myzus persicae) are sprayed with an active compound formulation of the desired concentration.
as §3

[5] = system: Ctenocephalides felis; test: Ctenocephalides felis oral test; settings: 48 h, application rate 100 ppm, in citrated cattle blood, after 2 days, read-out: efficacy (kill in %)
Procedure: Ctenocephalides felis—Oral Test
(§6) Solvent: Dimethyl sulfoxide
To produce a suitable active compound formulation, 10 mg of active compound are mixed with 0.5 ml of dimethyl sulfoxide. Dilution with citrated cattle blood gives the desired concentration.
About 20 unfed adult cat fleas (Ctenocephalides felis) are placed into a chamber which is closed at the top and bottom with gauze. A metal cylinder whose bottom end is closed with parafilm is placed onto the chamber. The cylinder contains the blood/active compound formulation, which can be imbibed by the fleas through the parafilm membrane.
After 2 days, the kill in % is determined. 100% means that all of the fleas have been killed; 0% means that none of the fleas have been killed.

[6] = system: Lucilia cuprina; test: Lucilia cuprina test; settings: application rate 100 ppm; L1 larvae; after 2 days
Procedure: as §6
To produce a suitable active compound formulation, 10 mg of active compound are mixed with 0.5 ml of dimethyl sulfoxide, and the concentrate is diluted with water to the desired concentration.
About 20 L1 larvae of the Australian sheep blowfly (Lucilia cuprina) are transferred into a test vessel containing minced horsemeat and the active compound formulation of the desired concentration.
After 2 days, the kill in % is determined. 100% means that all the larvae have been killed; 0% means that no larvae have been killed.

[7] = system: Myzus persicae; test: Myzus persicae drench test (MYZUPE D); settings: soil, 240 h, 10 dat, read-out: % Efficacy
Procedure: Myzus persicae—Drench Test (MYZUPE D)
Solvent: 7 parts by weight of dimethylformamide
Emulsifier: 2 part by weight of alkylaryl polyglycol ether
To produce a suitable active compound preparation, 1 part by weight of active compound is mixed with the specified amounts of solvent and emulsifier, and the concentrate is diluted with water to the desired concentration, it being necessary to include the volume of soil which is drenched in the calculation. It should be ensured that a concentration of 40 ppm of emulsifier in the soil is not exceeded. To produce further test concentrations, water is used for dilution.
Savoy cabbage (Brassica oleracea) in pots with soil and infested by all stages of the green peach aphid (Myzus persicae) is watered with an active compound preparation of the desired concentration.
(§7) After the desired period of time, the efficacy in % is determined. 100% means that all the aphids have been killed; 0% means that no aphids have been killed.

[8] = system: Heliothis armigera; test: Heliothis armigera test (HELIAR S); settings: Helicoverpa armigera, 6 dai, read-out: % Efficacy
Procedure: Heliothis armigera Test (HELIAR S)
(§8) Solvent: 14 parts by weight of dimethylformamide
(§9) Emulsifier: 2 parts by weight of alkylaryl polyglycol ether
(§10) To produce a suitable active compound formulation, 1 part by weight of active compound is dissolved with the stated parts by weight of solvent and emulsifier and made up to the desired concentration with water. To produce further test concentrations, water is used for dilution. In the event that addition of ammonium salts or/and penetrants (rapeseed oil methyl ester) is required, these are each pipetted in at a concentration of 1000 ppm after the finished formulation solution has been diluted.
Cotton plants (Gossypium hirsutum) are sprayed with an active compound formulation of the desired concentration and, in each case after 12 and 19 days, populated with 5 caterpillars (L2) of the cotton bollworm (Heliothis armigera).
(§11) The kill is determined 6 days after the infection. 100% means that all the caterpillars have been killed and 0% means that none of the caterpillars have been killed.

[9] = system: Phaedon cochleariae; test: Phaedon cochleariae test on cabbage plants (PHAECO S); settings: 6 dai, read-out: % Efficacy
Procedure: Phaedon cochleariae Test (PHAECO S)
as §8, §9, §10
Cabbage plants (Brassica oleracea var. sabauda) are sprayed with an active compound formulation of the desired concentration and populated with 10 L2 larvae of the mustard beetle (Phaedon cochleariae).
After the desired time, the kill in % is determined. 100% means that all the larvae have been killed and 0% means that none of the larvae have been killed.

[10] = system: Aphis gossypii; test: Aphis gossypii spray test (APHIGO S); settings: 144 h, 6 dat, read-out: % Efficacy
Procedure: Aphis gossypii—Spray Test (APHIGO S)
as §8, §2
as §5, with “water. If the addition of ammonium salts or/and penetrants is required, these are each added in a concentration of 1000 ppm to the formulation solution.” for “water.”
Cotton plants (Gossypium hirsutum) heavily infested by the cotton aphid (Aphis gossypii) are sprayed with an active compound formulation of the desired concentration.
After the desired time, the kill in % is determined. 100% means that all the aphids have been killed; 0% means that no aphids have been killed.

[11] = system: Spodoptera frugiperda; test: Spodoptera frugiperda spray test (SPODFR), comparative; settings: 168 h, 0.8 g of ai/ha, 7 dat, read-out: % Efficacy
Procedure: Spodoptera frugiperda—Spray Test (SPODFR)
as §1, §2, §5
Leaf discs of maize (Zea mays) are sprayed with an active compound formulation of the desired concentration and, after drying, populated with caterpillars of the armyworm (Spodoptera frugiperda).
After the desired period of time, the efficacy in % is determined. 100% means that all the caterpillars have been killed; 0% means that no caterpillar has been killed.

[12] = system: Spodoptera frugiperda; test: Spodoptera frugiperda test on maize plants (SPODFR S); settings: 6 dai, read-out: % Efficacy
Procedure: Spodoptera frugiperda Test (SPODFR S)
as §8, §9, §10
Maize plants (Zea mays) are sprayed with an active compound formulation of the desired concentration and, in each case after 5, 12 and 19 days, populated with 5 caterpillars (L2) of the fall armyworm (Spodoptera frugiperda).
as §11

[13] = system: Plutella xylostella; test: Plutella xylostella test (PLUTMA S); settings: 456 h, infection 19 dat, 6 dai, read-out: % Efficacy
Procedure: Plutella xylostella Test (PLUTMA S)
as §8, §9, §10
Cabbage plants (Brassica oleracea var. sabauda) are sprayed with an active compound formulation of the desired concentration and, after 19 days, populated with 10 caterpillars (L2 larvae) of the diamond back moth (Plutella xylostella).
as §11

[14] = system: Myzus persicae; test: Myzus persicae spray test (MYZUPE), comparative; settings: 120 h, 5 dat, read-out: % Efficacy; for Emax at 4 g/ha: 4 g of ai/ha; for Emax at 20 g/ha: 20 g of ai/ha
Procedure: Myzus persicae—Spray Test (MYZUPE)
as §1, §2, §5
Discs of Chinese cabbage leaves (Brassica pekinensis) infested by all stages of the green peach aphid (Myzus persicae) are sprayed with an active compound preparation of the desired concentration.
as §7

[15] = system: Myzus persicae; test: Myzus persicae spray test on bell pepper plants (MYZUPE S); settings: 144 h, 6 dat, read-out: % Efficacy
Procedure: Myzus persicae—Spray Test (MYZUPE S)
as §8, §2
as §5, with “water. If the addition of ammonium salts or/and penetrants is required, these are each added in a concentration of 1000 ppm to the formulation solution.” for “water.”
Bell pepper plants (Capsicum annuum) severely infested with the green peach aphid (Myzus persicae) are treated by spraying with the active compound formulation in the desired concentration.
After the desired time, the kill in % is determined. 100% means that all the animals have been killed; 0% means that no animals have been killed.

[16] = system: Rhipicephalus sanguineus; test: Rhipicephalus sanguineus in vitro contact test with adult brown dog ticks; settings: application rate 5 μg/cm^2; after 48 h; ticks dead or moribund
Procedure: Rhipicephalus sanguineus—In Vitro Contact Tests with Adult Brown Dog Ticks
as §4
After the solvent has evaporated off, the tubes are populated with 5-10 adult dog ticks (Rhipicephalus sanguineus), sealed with a perforated plastic lid and incubated in a horizontal position in the dark at room temperature and ambient humidity. After 48 h, efficacy is determined. To this end, the ticks are knocked to the base of the tube and incubated on a hotplate at 45-50° C. for not more than 5 min. Ticks which remain motionless on the base or move in such an uncoordinated manner that they are unable to deliberately avoid the heat by climbing upwards are considered to be dead or moribund.
An efficacy of 100% means that all the ticks were dead or moribund. 0% efficacy means that none of the ticks were harmed.

[17] = system: Phaedon cochleariae; test: Phaedon cochleariae spray test; settings: foliar, 168 h, application rate 100 g/ha, Chinese cabbage leaf discs, after 7 days, read-out: efficacy
Procedure: Phaedon cochleariae—Spray Test
as §1, §2, §5
Discs of Chinese cabbage leaves (Brassica pekinensis) are sprayed with an active compound formulation of the desired concentration and, after drying, populated with larvae of the mustard beetle (Phaedon cochleariae).
After 7 days, the efficacy in % is determined. 100% means that all the beetle larvae have been killed; 0% means that no beetle larvae have been killed.

Row | SMILES | pest or weed control at 100 g/ha [1] [%] | pest or weed control at 4 ppm [2] [%] | efficacy [3] [%] | pest or weed control at 100 g/ha [4] [%] | Emax at 4 ppm [10] [%] | Emax at 0.8 g/ha [11] [%] | Emax at 0.16 ppm ([12]; 120 h, infection 5 dat) [%] | Emax at 0.16 ppm ([12]; 288 h, infection 12 dat) [%] | Emax at 0.8 ppm ([12]; 288 h, infection 12 dat) [%] | Emax at 0.16 ppm ([12]; 456 h, infection 19 dat) [%] | Emax at 0.8 ppm ([12]; 456 h, infection 19 dat) [%] | Emax at 0.16 ppm [13] [%] | Emax at 4 g/ha [14] [%] | Emax at 20 g/ha [14] [%] | also measured
1 | CCS(=O)(=O)c1ccc2c(S(=O)(=O)CC)c(-c3nc4cc(C(F)(F)F)cnc4n3C)ncc2c1 [Example I-034, 4,7-Bis(ethylsulfonyl)-3-[3-methyl-6-(trifluoromethyl)imidazo[4,5-b]pyridin-2-yl]isoquinoline] | 83 | 100 | 100 | 90 | – | – | – | – | – | – | – | – | – | – | pest or weed control at 100 ppm [5]: 100%; efficacy (kill in %) [6]: 100%
2 | CCS(=O)(=O)c1c(-c2nc3cc(C(F)(F)F)cnc3n2C)ncc2cc(C(F)(F)F)ccc12 [Example I-51, reference compound] | – | – | – | – | 20 | 67 | 20 | 10 | 80 | 30 | 60 | 50 | 0 | 0 | Emax at 4 ppm [7]: 0%; Emax at 0.16 ppm ([8]; 288 h, infection 12 dat): 40%; Emax at 0.16 ppm ([8]; 456 h, infection 19 dat): 20%; Emax at 0.16 ppm ([9]; 120 h, infection 5 dat): 10%; Emax at 0.16 ppm ([9]; 288 h, infection 12 dat): 0%; Emax at 0.8 ppm ([9]; 288 h, 0.8 ppm, infection 12 dat): 40%; Emax at 0.8 ppm ([15]; 0.8 ppm): 0%; Emax at 4 ppm ([15]; 4 ppm): 70%
3 | CCS(=O)(=O)c1c(-c2nc3cc(C(F)(F)F)cnc3n2C)ncc2c(C(F)(F)F)cccc12 [Example I-032] | 100 | 100 | 100 | 100 | 90 | 100 | 100 | 70 | 100 | – | – | – | 90 | 100 | efficacy [16]: 100%; pest or weed control at 100 g/ha [17]: 100%
4 | CCS(=O)(=O)c1c(-c2nc3cc(C(F)(F)F)cnc3n2C)ncc2cc(OCC(F)(F)F)ccc12 [Example I-036] | 100 | 100 | – | – | – | – | 90 | – | – | 70 | 100 | 80 | – | – | –
